According to patent US20090226500A1, “SUTURES AND ANTI-SCARRING AGENTS” (Angiotech Pharmaceuticals, Inc, priority 2006, published 2009):
Where a name gives a salt, the structure may show the parent alone.

Each molecule was assayed on human fibroblasts (assay: Cell proliferation of fibroblasts). Details: Fibroblast, 72 h, read-out: IC50 cell proliferation of fibroblasts.
Type: cell-based
Method: Fibroblasts at 70-90% confluency are trypsinized, replated at 600 cells/well in media in 96-well plates and allowed to attachment overnight. […] Each drug concentration is tested in triplicate wells. Plates containing fibroblasts and drug substance are incubated at 37° C. for 72 hours.
To terminate the assay, the media is removed by gentle aspiration. A 1/400 dilution of CYQUANT 400×GR™ dye indicator (Molecular Probes; Eugene, Oreg.) is added to 1× Cell Lysis buffer, and 200 μL of the mixture is added to the wells of the plate. Plates are incubated at room temperature, protected from light for 3-5 minutes.

SMILES	IC50
NCCCNCCCCNCCCN [Spermine tetrahydrochloride]	0.6 to 1.2 µM

Same assay, conditions: Fibroblast, 72 hours, CYQUANT, read-out: IC50 cell proliferation of fibroblasts

SMILES	IC50
O=c1c(O)c(-c2ccc(O)cc2)oc2cc(O)cc(O)c12 [Kaempferol]	0.6 to 1.2 µM
CN(C)C[C@@H]1CCn2cc(c3ccccc32)C2=C(C(=O)NC2=O)c2cn(c3ccccc23)CCO1 [LY333531, Ruboxistaurin]	1.2 to 10 µM
CC(C)c1nc(N(C)S(C)(=O)=O)nc(-c2ccc(F)cc2)c1/C=C/[C@@H](O)C[C@@H](O)CC(=O)O [Rosuvastatin]	1.2 to 10 µM
C[C@@H]1C[C@H]2O[C@@H]2/C=C\C=C\C(=O)Cc2c(Cl)c(O)cc(O)c2C(=O)O1 [Radicicol]	0.01 to 0.1 µM
CS(=O)(=O)Nc1ccc([N+](=O)[O-])cc1OC1CCCCC1 [NS-398]	1.2 to 10 µM
CN(C/C=C/C#CC(C)(C)C)Cc1cccc2ccccc12 [Terbinafine]	0.01 to 0.1 µM
COc1cccc(-c2ccc(NC(=O)C3=C(C(=O)O)CCC3)c(F)c2)c1 [SC12267]	1.2 to 10 µM
NC(N)=Nc1nc(CSCCC(N)=NS(N)(=O)=O)cs1 [Famotidine]	0.1 to 0.6 µM
CC[C@]12CCCN3CCc4c(n(c5ccccc45)[C@@](O)(C(=O)OC)C1)[C@@H]32 [Vincamine]	0.0001 to 0.01 µM
S=C(S)N1CCCC1 [Ammonium pyrrolidinedithiocarbamate, 1-Pyrrolidinecarbodithioic acid ammonium salt]	0.1 to 0.6 µM
Nc1nc(F)nc2c1ncn2[C@@H]1O[C@H](COP(=O)(O)O)[C@@H](O)[C@@H]1O [Fludarabine Phosphate]	1.2 to 10 µM
COc1ccc(C2CNC(=O)C2)cc1OC1CCCC1 (centres unmarked) [Rolipram]	0.1 to 0.6 µM
Nc1nc2c(cnn2CCc2ccccc2)c2nc(-c3ccco3)nn12 [SCH-58261]	1.2 to 10 µM
COc1ccc2cc1Oc1ccc(cc1)C[C@H]1c3c(cc4c(c3Oc3cc5c(cc3OC)CCN(C)[C@@H]5C2)OCO4)CCN1C [Cepharanthine]	0.6 to 1.2 µM
CC1(COc2ccc(CC3SC(=O)NC3=O)cc2)CCCCC1 (centres unmarked) [Ciglitazone]	0.6 to 1.2 µM
CC(=O)c1c(O)c(C)c(O)c(Cc2c(O)c3c(c(C(=O)/C=C/c4ccccc4)c2O)OC(C)(C)C=C3)c1O [Rottlerin]	1.2 to 10 µM
CC[C@@]1(O)C[C@H](O[C@H]2C[C@H](N(C)C)[C@H](O[C@H]3C[C@H](O)[C@H](O[C@H]4CCC(=O)[C@H](C)O4)[C@H](C)O3)[C@H](C)O2)c2c(cc3c(c2O)C(=O)c2c(O)cccc2C3=O)[C@H]1C(=O)OC [Aclarubicin]	0.0001 to 0.01 µM
CCC(=O)O[C@]1(C(=O)CCl)[C@@H](C)C[C@H]2[C@@H]3C[C@H](F)C4=CC(=O)C=C[C@]4(C)[C@@]3(F)[C@@H](O)C[C@@]21C [Halobetasol Propionate]	1.2 to 10 µM
NCCC(O)(P(=O)(O)O)P(=O)(O)O [Pamidronate disodium]	0.1 to 0.6 µM
CC(=O)Oc1cc(C(F)(F)F)ccc1C(=O)O [Triflusal]	0.01 to 0.1 µM
O=NN(CCCl)C(=O)NCCCl [Carmustine]	1.2 to 10 µM
COc1cc([C@@H]2c3cc4c(cc3[C@@H](O[C@@H]3O[C@@H]5CO[C@@H](c6cccs6)O[C@H]5[C@H](O)[C@H]3O)[C@H]3COC(=O)[C@H]23)OCO4)cc(OC)c1O [Teniposide]	0.01 to 0.1 µM
CCOC(=O)[C@H](CCc1ccccc1)N[C@@H](C)C(=O)N1CCC[C@H]1C(=O)O [Enalapril]	1.2 to 10 µM
CN(C)/N=N/c1[nH]cnc1C(N)=O [Dacarbazine]	0.01 to 0.1 µM

SMILES	IC50
CCOC(=O)COc1ccc2c(C)c(CCN(CC)CC)c(=O)oc2c1Cl [Cloricromene]	1.2 to 10 µM
O=C1C(O)=C([C@H]2CC[C@H](c3ccc(Cl)cc3)CC2)C(=O)c2ccccc21 [Atovaquone]	1.2 to 10 µM
C=C(C)[C@@H]1CC[C@]2(C(=O)O)CC[C@]3(C)[C@H](CC[C@@H]4[C@@]5(C)CC[C@H](O)C(C)(C)[C@@H]5CC[C@]43C)[C@@H]12 [Betulinic acid]	1.2 to 10 µM
O=S(=O)(c1cccc2cnccc12)N1CCCNCC1 [Fasudil]	0.6 to 1.2 µM
CO[C@H]1C[C@@H]2CC[C@@H](C)[C@@](O)(O2)C(=O)C(=O)N2CCCC[C@H]2C(=O)O[C@H]([C@H](C)C[C@@H]2CC[C@H](n3cnnn3)[C@H](OC)C2)CC(=O)[C@H](C)/C=C(\C)[C@@H](O)[C@@H](OC)C(=O)[C@H](C)C[C@H](C)/C=C/C=C/C=C/1C [Zotarolimus]	0.0001 to 0.01 µM
Cc1ccc(=O)n(-c2ccccc2)c1 [Pirfenidone]	0.01 to 0.1 µM
Cc1ccc(-c2cc(C(F)(F)F)nn2-c2ccc(S(N)(=O)=O)cc2)cc1 [Celecoxib]	0.1 to 0.6 µM
CC(C)[C@]12O[C@H]1[C@@H]1O[C@]13[C@]1(O[C@H]1C[C@H]1C4=C(CC[C@@]13C)C(=O)OC4)[C@@H]2O [Triptolide]	0.0001 to 0.01 µM
COC(=O)C[C@](O)(CCCC(C)(C)O)C(=O)O[C@@H]1C(OC)=C[C@]23CCCN2CCc2cc4c(cc2[C@H]13)OCO4 [Homoharringtonine]	0.01 to 0.1 µM
N=C(N)c1ccc(OCCCCCOc2ccc(C(=N)N)cc2)cc1 [Pentamidine]	0.6 to 1.2 µM
O=C(O)CSCC(=O)NC1CCSC1=O (centres unmarked) [Erdosteine]	1.2 to 10 µM
COc1cc(O)c2c(c1)oc(=O)c1c3cc(O)c(O)cc3oc21 [Wedelolactone]	1.2 to 10 µM
O=C(Nc1cc(C(F)(F)F)cc(C(F)(F)F)c1)c1cc(Cl)ccc1O [IMD-0354]	0.1 to 0.6 µM
C/C=C(\C)C(=O)N[C@@H](c1ccccc1)[C@@H](O)C(=O)O[C@H]1C[C@@]2(O)[C@@H](OC(=O)c3ccccc3)[C@@H]3[C@]4(OC(C)=O)CO[C@@H]4C[C@H](O)[C@@]3(C)C(=O)[C@H](OC(C)=O)C(=C1C)C2(C)C [Cephalomannine]	0.01 to 0.1 µM
COCc1c(C(C)C)nc(C(C)C)c(/C=C/[C@@H](O)C[C@@H](O)CC(=O)O)c1-c1ccc(F)cc1 [Cerivastatin Na]	1.2 to 10 µM
Cc1ccnc(NS(=O)(=O)c2ccc(N)cc2)n1 [Sulfamerazine]	1.2 to 10 µM
CC[C@H]1OC(=O)[C@H](C)[C@@H](O[C@H]2C[C@@](C)(OC)[C@@H](O)[C@H](C)O2)[C@H](C)[C@@H](O[C@@H]2O[C@H](C)C[C@H](N(C)C)[C@H]2O)[C@](C)(OC)C[C@@H](C)C(=O)[C@H](C)[C@@H](O)[C@]1(C)O [Clarithromycin, 6-O-Methylerythromycin]	0.1 to 0.6 µM
O=c1cnn([C@@H]2O[C@H](CO)C(O)[C@@H]2O)c(=O)[nH]1 (some centres unmarked) [6-Azauridine, 6-Azauracil riboside]	1.2 to 10 µM
NNc1nncc2ccccc12 [Hydralazine hydrochloride]	1.2 to 10 µM
NCCCCNCCCN [Spermidine trihydrochloride]	1.2 to 10 µM
COc1cc(/C=C/C(=O)CC(=O)/C=C/c2ccc(O)c(OC)c2)ccc1O [Curcumin, Diferuloylmethane]	1.2 to 10 µM
Clc1ccc(CCC(Cn2ccnc2)Sc2c(Cl)cccc2Cl)cc1 (centres unmarked) [Butoconazole Nitrate]	1.2 to 10 µM
CC[C@H](C)C(=O)O[C@H]1C[C@H](O)C=C2C=C[C@H](C)[C@H](CC[C@@H](O)C[C@@H](O)CC(=O)O)[C@H]21 [Pravastatin]	1.2 to 10 µM
O=c1c(O)c(-c2ccc(O)c(O)c2)oc2cc(O)cc(O)c12 [Quercetin dihydrate]	0.1 to 0.6 µM

SMILES	IC50
Nc1ncn([C@H]2C[C@H](O)[C@@H](CO)O2)c(=O)n1 [Decitabine, 5-Aza-2-deoxycytidine]	0.1 to 0.6 µM
O=C1CCc2cc(OCCCCc3nnnn3C3CCCCC3)ccc2N1 [Cliostazol]	1.2 to 10 µM
N=c1ccn2c(n1)O[C@H]1[C@H](O)[C@@H](CO)O[C@H]12 [Ancitabine hydrochloride]	0.1 to 0.6 µM
CC(=O)CC(c1ccccc1)c1c(O)c2ccccc2oc1=O (centres unmarked) [Warfarin, 3-(a-Acetonylbenzyl)-4-hydroxycoumarin sodium salt]	0.0001 to 0.01 µM
CCCCc1nc(Cl)c(CO)n1Cc1ccc(-c2ccccc2-c2nn[nH]n2)cc1 [Losartan potassium]	1.2 to 10 µM
Nc1nc(N)nc(-c2cc(Cl)ccc2Cl)n1 [Irsogladine]	1.2 to 10 µM
CCCSc1ccc2nc(NC(=O)OC)[nH]c2c1 [Albendazole]	0.1 to 0.6 µM
O=C(/C=C/c1ccccc1)NC(NC(=S)Nc1cccc2cccnc12)C(Cl)(Cl)Cl (centres unmarked) [Salubrinal]	1.2 to 10 µM
NC(=O)c1ncn([C@@H]2O[C@H](CO)[C@@H](O)[C@H]2O)c1O [Mizoribine]	0.01 to 0.1 µM
Cc1ccc(C)c(OCCCC(C)(C)C(=O)O)c1 [Gemfibrozil]	0.01 to 0.1 µM
Oc1ccnc(O)n1 [Uracil, 2,4-Dihydroxypyrimidine]	0.01 to 0.1 µM
O=c1cc(-c2ccc(O)cc2)oc2cc(O)cc(O)c12 [Apigenin, 4,5,7-Trihydroxyflavone]	1.2 to 10 µM
CC(C)n1c(/C=C/C(O)CC(O)CC(=O)O)c(-c2ccc(F)cc2)c2ccccc21 (centres unmarked) [Fluvastatin]	0.1 to 0.6 µM
Nc1nccc(-c2c(-c3ccc(F)cc3)ncn2C2CCNCC2)n1 [SB 220025]	1.2 to 10 µM
CCC(=O)O[C@@H]1CC(=O)O[C@H](C)C/C=C/C=C/[C@H](O)[C@H](C)C[C@H](CC=O)[C@H](O[C@@H]2O[C@H](C)[C@@H](O[C@H]3C[C@@](C)(O)[C@@H](OC(=O)CC)[C@H](C)O3)[C@H](N(C)C)[C@H]2O)[C@H]1OC [Midecamycin, Leucomycin V 3,4B-dipropionate]	1.2 to 10 µM
COC1=C(OC)C(=O)C(CCCCCCCCCCO)=C(C)C1=O [Idebenone]	1.2 to 10 µM
COC(=O)C=Cc1cc(O)ccc1O [Erbstatin analog, Methyl 2,5-dihydroxycinnamate]	1.2 to 10 µM
CCOc1nc2cccc(C(=O)O)c2n1Cc1ccc(-c2ccccc2-c2nnn[nH]2)cc1 [Candesartan]	0.01 to 0.1 µM
CCc1c2c(nc3ccc(OC(=O)N4CCC(N5CCCCC5)CC4)cc13)-c1cc3c(c(=O)n1C2)COC(=O)[C@]3(O)CC [Irinotecan Hydrochloride Trihydrate]	0.6 to 1.2 µM
COc1ccc([C@@H]2CC(=O)c3c(O)cc(O)cc3O2)cc1O [Hesperetin]	0.0001 to 0.01 µM
C1CCNCC1 [Piperidine]	1.2 to 10 µM
Nc1ncn([C@@H]2O[C@H](CO)[C@@H](O)[C@H]2O)c(=O)n1 [5-Azacytidine]	0.6 to 1.2 µM
